For data set [1], the system named is zebrafish embryos.
Protocol: Transgenic zebrafish (fli-1:EGFP) were from the Model Animal Research Center of Nanjing University. Adult zebrafish aged less than 1 year were used for experiment and fed at a water pH value of 7±0.2, a temperature around 28° C. and a ratio of illumination to darkness of 14 h:10 h, and with Artemia salina eggs twice a day. Three zebrafish, one female, two males, were placed in a spawning box the night before and eggs were collected the next morning. Fish eggs were placed in an embryo culture medium (prepared with 0.2 g/L of sea salt) and cultured at 28° C.
Zebrafish embryos were cultured in 24-well plates with 10 embryos per well at 2 hpf in a dosing manner, drug solutions of the above concentrations in the table were separately added, termination was conducted at 8 hpf, and the embryos were washed and transferred to an egg solution for continuous culture to 72 hpf. Dead embryos were cleaned up in time. Each experiment was conducted in triplicate.
A phenotype of malformation was observed, the number of all abnormal zebrafish where the malformation was present was recorded and a malformation rate and a rescue rate of each group were calculated. Morphological defects, a heart rate, cardiac morphology and other indicators were observed and evaluated by an SMZ745T inverted stereomicroscope.
Data set [2] relates to zebrafish embryos. Conditions: 30 mM HCHO.
In data set [3] the test system is zebrafish embryos. This is another data set of the same source.
Protocol: Transgenic zebrafish (fli-1:EGFP) were from the Model Animal Research Center of Nanjing University. Adult zebrafish aged less than 1 were used for experiment and fed at a water pH value of 7±0.2, a temperature around 28° C. and a ratio of illumination to darkness of 14 h:10 h, and with Artemia salina eggs twice a day. Three zebrafish, one female, two males, were placed in a spawning box the night before and eggs were collected the next morning. Fish eggs were placed in an embryo culture medium (prepared with 0.2 g/L of sea salt) and cultured at 28° C. […] Dead embryos were cleaned up in time. A phenotype of malformation was observed, the number of all abnormal zebrafish where the malformation was present was recorded and a malformation rate and a rescue rate of each group were calculated. Morphological defects, a heart rate, cardiac morphology and other indicators were observed and evaluated by an SMZ745T inverted stereomicroscope.
In data set [4] the test system is zebrafish embryos. The protocol: A table was listed below for details.
5-Selected concentrations of methyltetrahydrofolate in the experiment were recorded in the table.
This is another data set of the same source.

Read-outs that look alike come from different tables or passages of the source.

For `CCO` [EtOH, ethanol], in the data set on zebrafish embryos [1] ([…] EtOH), the survival rate result is on record as “significantly different from that of the control group”. For the same molecule, in the data set with zebrafish embryos [1] (zebrafish, in vivo), the heart rate entry is “led to a malformed phenotype of bradycardia in zebrafish embryos”, the “lower intestinal network blood vessels” value is “led to developmental disorders of lower intestinal network blood vessels of the zebrafish” and the pericardium edema result is recorded as “led to a malformed phenotype of pericardium edema in zebrafish embryos”.

Consider `C=O` [HCHO, formaldehyde], for which, in the data set on zebrafish embryos [2], the “lethality and teratogenicity to zebrafish” value is on record as “lethal but not teratogenic to zebrafish”; the “pericardium edema and heart rate (48 hpf), body length (72 hpf)” value was “had no effect on the pericardium edema, the heart rate and the body length of the zebrafish”; the “survival rate of embryos” value is listed as “severely lead to a low survival rate of embryos”. Further, the embryo development entry in the data set on zebrafish embryos [2] (8 hpf) is “delayed development of the zebrafish embryos”. For the same molecule, in the data set with zebrafish embryos [2] (72 hpf), the “heart shape and lower intestinal network blood vessels” value was “normal heart shape and normal development of lower intestinal network blood vessels”.

For the molecule `CN(Cc1cnc2nc(N)nc(N)c2n1)c1ccc(C(=O)N[C@@H](CCC(=O)O)C(=O)O)cc1` [MTX, methotrexate], the “pericardium edema and 10 s heart rate (48 hpf), body length (72 hpf)” value with zebrafish embryos [3] (1.5 mM MTX) is “seriously led to pericardium edema, bradycardia, and a shortened body length of zebrafish”. Also, the “survival rate of embryos” value in the data set on zebrafish embryos [3] (1.5 mM MTX, 6-10 hpf) is on record as “lower than 0.1”. In addition, the embryo phenotype entry in the data set with zebrafish embryos [3] (1.5 mM MTX, 24 hpf) is “led to hypoplasia and deformities such as small heads and short tails of zebrafish”; with zebrafish embryos [3] (1.5 mM MTX, 48 hpf), “led to body bending, intersegmental vascular hypoplasia and pericardium edema of zebrafish”; with zebrafish embryos [3] (1.5 mM MTX, 72 hpf), “led to a short body length and lower intestinal network vessel hypoplasia”. Further, the Malformation rate in the data set on zebrafish embryos [3] (MTX group (1.5 mM)) amounted to 100%.

On to `COc1cccc2c1cc([N+](=O)[O-])c1c(C(=O)O)cc3c(c12)OCO3` [aristolochic acid A], for which the “pericardium edema and 10 s heart rate (48 hpf), body length (72 hpf)” value in the data set on zebrafish embryos [4] (1-5 μM aristolochic acid A) is “seriously led to pericardium edema, bradycardia, and a shortened body length in zebrafish”. The embryo phenotype result with zebrafish embryos [4] (1-5 μM aristolochic acid A, 8 hpf and 24 hpf) is “did not lead to obvious embryonic development delay, malformation and death”; with zebrafish embryos [4] (aristolochic acid A, 72 hpf), “showed a complete deficiency of development of the lower intestinal network blood vessels of the zebrafish”; in the data set on zebrafish embryos [4] (aristolochic acid A, increasing concentration, 48 hpf), “gradually showed pericardium edema, a slowed heart rate, curved bodies, a disappeared systemic blood flow, hematocele, yolk sac opacity”. Moreover, in the data set on zebrafish embryos [4] (2-5 μM aristolochic acid A), the “survival rate of embryos” value is listed as “seriously reduce a survival rate of embryos”.

Source of the values: patent US20230043678A1, “USE OF 5-METHYLTETRAHYDROFOLATE” (priority 2019, published 2023).
